# Laboratory results reported in US20240360139A1, “BLOOD BRAIN BARRIER PENETRATING SELECTIVE INHIBITORS OF ROCK2 PROTEIN KINASES AND USES THEREOF” (GENOSCO Inc., priority 2023, published 2024).
# Counter-ions that a name gives are not always drawn.
# Legend:
# [1] = target: T1, Recombinant ROCK1 (amino acids 1-477) (Homo sapiens, UniProt Q13464); test: ROCK inhibition assay, LANCE Ultra TR-FRET (ROCK1); assay type: biochemical; details: 1 mM of ATP
# T1 construct: Recombinant ROCK1 (amino acids 1-477)
# Experimental: (§1) Kinase IC50 was determined through an in vitro assay based on LANCE Ultra TR-FRET (Time-Resolved Fluorescence Resonance Energy Transfer) homogeneous technologies method 5 (Perkin Elmer). Recombinant ROCK1 (amino acids 1-477) and ROCK2 (amino acids 5-554) proteins were purchased from Carna Biosciences and SignalChem. Compound activities were measured by Envision and IC50s were calculated. The assays were performed in white LUMITRAC™ 200 96 well half-area microplates from Greiner Bio-One. The kinase reaction buffer consisted of 50 mM HEPES pH 7.5, 1 mM EGTA, 10 mM MgCl2, 2 mM DTT and 0.01% 10 Tween-20. Kinases were incubated with 50 nM (ULight-CREBtide) substrate in the presence of 1 mM (ROCK1) or 1 mM (ROCK2) of ATP. The kinase reaction was carried out for 1 hour before addition of a stopping buffer to a final of 10 mM EDTA and 0.6 nM of LANCE Ultra Europium anti-phospho-CREB (Ser133) antibody (PerkinElmer TRF0200) in LANCE detection buffer. All assay incubations were performed at room temperature, and the microplates were sealed with polyester film during that time. The reaction was incubated for 1 hour, and the signal was read in Envision in TR-FRET mode (excitation at 320 nm and emission at 615/665 nm).
# (§2) As used herein, a way to describe potency of inhibitory activity (nM) is a value of inhibitory activity at 50% (IC50).
# [2] = target: T2, Recombinant ROCK2 (amino acids 5-554) (Homo sapiens, UniProt O75116); test: ROCK inhibition assay, LANCE Ultra TR-FRET (ROCK2); assay type: biochemical; details: 1 mM of ATP
# T2 construct: ROCK2 (amino acids 5-554)
# Experimental: as §1, §2
# T2 sequence (O75116 5-554): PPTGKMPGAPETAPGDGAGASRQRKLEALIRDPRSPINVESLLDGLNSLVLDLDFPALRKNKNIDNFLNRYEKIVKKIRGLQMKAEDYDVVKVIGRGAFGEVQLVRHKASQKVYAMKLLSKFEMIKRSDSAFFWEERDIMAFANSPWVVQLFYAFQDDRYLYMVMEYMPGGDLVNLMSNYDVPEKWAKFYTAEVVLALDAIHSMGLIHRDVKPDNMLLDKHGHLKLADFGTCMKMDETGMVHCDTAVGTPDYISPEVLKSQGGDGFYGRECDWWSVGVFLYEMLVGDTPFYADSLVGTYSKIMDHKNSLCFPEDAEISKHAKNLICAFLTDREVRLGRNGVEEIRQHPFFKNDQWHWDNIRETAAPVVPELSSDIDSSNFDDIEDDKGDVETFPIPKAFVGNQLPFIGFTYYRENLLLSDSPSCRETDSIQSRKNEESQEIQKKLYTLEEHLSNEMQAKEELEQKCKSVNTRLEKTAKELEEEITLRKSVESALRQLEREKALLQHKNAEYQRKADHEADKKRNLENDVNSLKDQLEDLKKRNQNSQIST
# T1 sequence (Q13464 1-477): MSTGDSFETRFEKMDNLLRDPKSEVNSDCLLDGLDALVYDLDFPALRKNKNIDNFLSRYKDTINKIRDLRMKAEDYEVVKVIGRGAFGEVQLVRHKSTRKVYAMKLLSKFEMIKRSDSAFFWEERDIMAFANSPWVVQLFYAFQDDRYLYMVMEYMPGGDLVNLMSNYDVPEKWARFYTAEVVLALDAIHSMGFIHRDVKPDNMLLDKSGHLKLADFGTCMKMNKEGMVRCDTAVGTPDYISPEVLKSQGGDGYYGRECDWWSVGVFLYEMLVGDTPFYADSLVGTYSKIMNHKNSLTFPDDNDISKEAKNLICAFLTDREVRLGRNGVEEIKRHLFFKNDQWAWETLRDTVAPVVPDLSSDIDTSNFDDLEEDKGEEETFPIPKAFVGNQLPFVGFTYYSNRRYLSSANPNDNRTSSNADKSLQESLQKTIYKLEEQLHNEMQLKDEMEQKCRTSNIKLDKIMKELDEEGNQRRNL
IC50 [1],IC50 [2],SMILES
201 to 500 nM,21 to 200 nM,CCN(C)CCn1cc(C(=O)C2COc3ccc(OC)cc3C2)c2ccc(-c3cn[nH]c3F)cc21 (stereo not drawn) [Compound 3-30]
> 501 nM,21 to 200 nM,COc1ccc2c(c1)CC(C(=O)c1cn(C[C@H]3CCN3C)c3cc(-c4cn[nH]c4OC)ccc13)CO2 (stereo partly drawn) [Compound 1-49]
> 501 nM,21 to 200 nM,COc1[nH]ncc1-c1ccc2c(C(=O)C3COc4ccc(Cl)cc4C3)cn(C3CNC3)c2c1 (stereo not drawn) [Compound 1-18]
> 501 nM,201 to 500 nM,CN(C)CCn1cc(C(=O)C2COc3ccc(F)cc3O2)c2ccc(-c3c[nH]nc3Cl)cc21 (stereo not drawn) [Compound 5-16]
> 501 nM,< 20 nM,CCN(CC)CCn1cc(C(=O)C2COc3ccc(Cl)cc3C2)c2ccc(-c3cn[nH]c3OC)cc21 (stereo not drawn) [Compound 3-13]
> 501 nM,< 20 nM,COc1[nH]ncc1-c1ccc2c(C(=O)C3COc4ccc(Cl)cc4C3)cn(CC3CN(C)C3)c2c1 (stereo not drawn) [Compound 1-44]
> 501 nM,21 to 200 nM,COc1ccc2c(c1)CC(C(=O)c1cn(C[C@@H]3CCN3C)c3cc(-c4cn[nH]c4Cl)ccc13)CO2 (stereo partly drawn) [Compound 1-46]
> 501 nM,21 to 200 nM,COc1n[nH]cc1-c1ccc2c(C(=O)C3COc4ccc(F)cc4C3)cn(CCCN(C)C)c2c1 (stereo not drawn) [Compound 3-6]
> 501 nM,21 to 200 nM,COc1ccc2c(c1)CC(C(=O)c1cn(C[C@H]3CCN3C)c3cc(-c4cn[nH]c4F)ccc13)CO2 (stereo partly drawn) [Compound 1-45]
> 501 nM,21 to 200 nM,CN(C)CCn1cc(C(=O)C2COc3ccc(F)cc3C2)c2ccc(-c3cn[nH]c3F)cc21 (stereo not drawn) [Compound 1-23]
> 501 nM,< 20 nM,CCN(C)CCn1cc(C(=O)[C@@H]2COc3ccc(OC)cc3C2)c2ccc(-c3cn[nH]c3Cl)cc21 [Compound 3-26]
> 501 nM,< 20 nM,CCN1CC[C@@H]1Cn1cc(C(=O)[C@@H]2COc3ccc(OC)cc3C2)c2ccc(-c3cn[nH]c3Cl)cc21 [Compound 1-59]
201 to 500 nM,< 20 nM,COc1ccc2c(c1)CC(C(=O)c1cn(C[C@@H]3CCN3)c3cc(-c4cn[nH]c4Cl)ccc13)CO2 (stereo partly drawn) [Compound 1-36]
201 to 500 nM,21 to 200 nM,COc1[nH]ncc1-c1ccc2c(C(=O)C3COc4ccc(Cl)cc4C3)cn(C[C@@H]3CCCN3C)c2c1 (stereo partly drawn) [Compound 1-29]
> 501 nM,> 501 nM,COc1ccc2c(c1)CC(C(=O)c1nn(CCN(C)C)c3cc(-c4c[nH]nc4OC)ccc13)CCO2 (stereo not drawn) [Compound 5-64]
> 501 nM,< 20 nM,CNCCn1cc(C(=O)C2COc3ccc(OC)cc3C2)c2ccc(-c3cn[nH]c3Cl)cc21 (stereo not drawn) [Compound 3-23]
201 to 500 nM,< 20 nM,CN(C)CCn1cc(C(=O)[C@@H]2COc3ccc(F)cc3C2)c2ccc(-c3c[nH]nc3Cl)cc21 [Compound 5-21]
> 501 nM,21 to 200 nM,COc1ccc2c(c1)CC(C(=O)c1cn(C[C@@H]3CCN3C)c3cc(-c4cn[nH]c4F)ccc13)CO2 (stereo partly drawn) [Compound 1-48]
> 501 nM,> 501 nM,CN1CCCC1Cn1cc(C(=O)C2COc3ccc(Cl)cc3C2)c2ccc(-c3cn[nH]c3Cl)cc21 (stereo not drawn) [Compound 1-20]
201 to 500 nM,21 to 200 nM,CN(C)CCn1cc(C(=O)C2COc3ccc(Cl)cc3C2)c2ccc(-c3c[nH]nc3Cl)nc21 (stereo not drawn) [Compound 1-9]
> 501 nM,> 501 nM,COc1n[nH]cc1-c1ccc2c(C(=O)C3CCOc4ccc(F)cc4C3)nn(CCN(C)C)c2c1 (stereo not drawn) [Compound 5-62]
201 to 500 nM,< 20 nM,C[C@H](Cn1cc(C(=O)[C@@H]2COc3ccc(Cl)cc3C2)c2ccc(-c3cn[nH]c3F)cc21)N(C)C [Compound 2-17]
> 501 nM,< 20 nM,COc1ccc2c(c1)CC(C(=O)c1cn(CCN(C)C)c3nc(-c4c[nH]nc4Cl)ccc13)CO2 (stereo not drawn) [Compound 1-13]
> 501 nM,> 501 nM,COc1ccc2c(c1)CC(C(=O)c1nn(CCN(C)C)c3cc(-c4c[nH]nc4Cl)ccc13)CCO2 (stereo not drawn) [Compound 5-65]
201 to 500 nM,< 20 nM,CCN(CC)CCn1cc(C(=O)C2COc3ccc(OC)cc3C2)c2ccc(-c3cn[nH]c3F)cc21 (stereo not drawn) [Compound 3-22]

IC50 [1],IC50 [2],SMILES
21 to 200 nM,< 20 nM,COc1ccc2c(c1)CC(C(=O)c1nn(CCN(C)C)c3cc(-c4c[nH]nc4Cl)ccc13)CO2 (stereo not drawn) [Compound 5-50]
21 to 200 nM,< 20 nM,CC(N)Cn1cc(C(=O)C2COc3ccc(F)cc3C2)c2cnc(-c3c[nH]nc3Cl)cc21 (stereo not drawn) [Compound 2-2]
> 501 nM,< 20 nM,"O=C(c1cn(CCN2CCC2)c2nc(-c3c[nH]nc3Cl)ccc12)C1COc2ccc(F)cc2C1 (stereo not drawn) [Compound 3-1, [1-[2-(azetidin-1-yl)ethyl]-6-(3-chloro-1H-pyrazol-4-yl)pyrrolo[2,3-b]pyridin-3-yl]-(6-fluorochroman-3-yl)methanone]"
> 501 nM,21 to 200 nM,COc1n[nH]cc1-c1ccc2c(C(=O)C3COc4ccc(F)cc4C3)nn(CCN(C)C)c2c1 (stereo not drawn) [Compound 5-51]
> 501 nM,201 to 500 nM,CNCCn1cc(C(=O)C2COc3ccc(Cl)cc3C2)c2ccc(-c3cn[nH]c3Cl)cc21 (stereo not drawn) [Compound 3-9]
> 501 nM,> 501 nM,CN(C)CCn1cc(C(=O)C2COc3ccc(Cl)cc3C2)c2cnc(-c3cn[nH]c3Cl)nc21 (stereo not drawn) [Compound 1-33]
> 501 nM,21 to 200 nM,CN(C)CCn1nc(C(=O)C2COc3ccc(Cl)cc3O2)c2ccc(-c3c[nH]nc3Cl)cc21 (stereo not drawn) [Compound 5-61]
201 to 500 nM,21 to 200 nM,CCN(CC)CCn1cc(C(=O)[C@@H]2COc3ccc(OC)cc3C2)c2ccc(-c3cn[nH]c3Cl)cc21 [Compound 3-21]
> 501 nM,> 501 nM,CN(C)CCn1cc(C(=O)C2COc3ccc(Cl)cc3O2)c2ccc(-c3c[nH]nc3Cl)cc21 (stereo not drawn) [Compound 5-17]
201 to 500 nM,< 20 nM,CCN(C)CCn1cc(C(=O)C2COc3ccc(OC)cc3C2)c2ccc(-c3cn[nH]c3Cl)cc21 (stereo not drawn) [Compound 3-25]
> 501 nM,201 to 500 nM,COc1[nH]ncc1-c1ccc2c(C(=O)C3COc4ccc(Cl)cc4O3)cn(CCN(C)C)c2c1 (stereo not drawn) [Compound 5-42]
> 501 nM,21 to 200 nM,"COc1[nH]ncc1-c1cc2c(cn1)c(C(=O)C1COc3ccc(Cl)cc3C1)cn2CCN(C)C (stereo not drawn) [Compound 1-2, (6-chlorochroman-3-yl)(1-(2-(dimethylamino)ethyl)-6-(5-methoxy-1H-pyrazol-4-yl)-1H-pyrrolo[3,2-c]pyridin-3-yl)methanone dihydrochloride]"
201 to 500 nM,< 20 nM,CN(C)CCn1cc(C(=O)[C@@H]2COc3ccc(Cl)cc3C2)c2ccc(-c3cn[nH]c3F)cc21 [Compound 1-26]
> 501 nM,< 20 nM,"C[C@@H](Cn1cc(C(=O)C2COc3ccc(Cl)cc3C2)c2ccc(-c3cn[nH]c3Cl)cc21)N(C)C (stereo partly drawn) [Compound 2-12, (6-chlorochroman-3-yl)-[6-(5-chloro-1H-pyrazol-4-yl)-1-[(2S)-2-(dimethylamino)propyl]indol-3-yl]methanone]"
> 501 nM,< 20 nM,COc1ccc2c(c1)C[C@@H](C(=O)c1cn(CCN(C)C)c3cc(-c4c[nH]nc4Cl)ccc13)CO2 [Compound 5-8]
201 to 500 nM,< 20 nM,CNCCn1cc(C(=O)C2COc3ccc(F)cc3C2)c2ccc(-c3c[nH]nc3Cl)cc21 (stereo not drawn) [Compound 3-5]
> 501 nM,> 501 nM,CN(C)CCn1cc(C(=O)C2COc3ccc(Cl)cc3C2)c2ccc(-c3ccnn3C)cc21 (stereo not drawn) [Compound 5-24]
< 20 nM,< 20 nM,NCCn1cc(C(=O)C2COc3ccc(F)cc3C2)c2ccc(-c3c[nH]nc3Cl)cc21 (stereo not drawn) [Compound 2-4]
> 501 nM,201 to 500 nM,CN(C)CCn1cc(C(=O)[C@H]2COc3ccc(Cl)cc3C2)c2ccc(-c3cn[nH]c3Cl)cc21 [Compound 5-35]
> 501 nM,21 to 200 nM,COc1[nH]ncc1-c1ccc2c(C(=O)C3COc4ccc(Cl)cc4C3)cn(CC3CCCN3C)c2c1 (stereo not drawn) [Compound 1-19]
21 to 200 nM,21 to 200 nM,CN(C)C1(Cn2cc(C(=O)C3COc4ccc(Cl)cc4C3)c3ccc(-c4cn[nH]c4Cl)cc32)CC1 (stereo not drawn) [Compound 2-13]
> 501 nM,201 to 500 nM,"COc1n[nH]cc1-c1ccc2c(C(=O)C3COc4ccc(Cl)cc4C3)cn(CCN3CCC3)c2c1 (stereo not drawn) [Compound 3-4, [1-[2-(azetidin-1-yl)ethyl]-6-(3-methoxy-1H-pyrazol-4-yl)indol-3-yl]-(6-chlorochroman-3-yl)methanone]"
> 501 nM,< 20 nM,COc1ccc2c(c1)CC(C(=O)c1cn(C[C@@H]3CCN3C)c3cc(-c4cn[nH]c4OC)ccc13)CO2 (stereo partly drawn) [Compound 1-47]
> 501 nM,21 to 200 nM,CN(C)CCn1cc(C(=O)C2COc3ccc(Cl)cc3C2)c2ccc(-c3c[nH]nc3Cl)cc21 (stereo not drawn) [Compound 1-17]
> 501 nM,,COc1[nH]ncc1-c1ccc2c(C(=O)[C@@H]3COc4ccc(F)cc4C3)cn(CCN(C)C)c2c1 [Compound 5-39]
